# Earlier results, collected in patent US8709498B2, “Method of stimulating tissue healing” (priority 2001, dated 2014).
# Read-outs that look alike come from different tables or passages of the source.
# How the values were obtained:
# [1] = system: human skin fibroblasts; details: human skin fibroblasts in vitro
# [2] = system: mouse macrophages; details: abolished by nitrite excess
# [3] = system: human endothelial cells
# [4] = system: polymorphonuclear neutrophils; details: read-out: IC50, chemiluminescence decrease
# [5] = system: human fibroblasts
# [6] = system: endothelial cells of the human umbilical vein; details: HOCl 5 nM/1.2×10^5 cells, in vitro; no cell death
# [7] = system: endothelial cells; details: in vitro, (HOCl)=35 μM
# [8] = system: polymorphonuclear neutrophils; details: HOCl 250 μM
# [9] = system: macrophages; details: (NaOCl)=1.0075 mM, after two hours of contact in vitro
# [10] = system: rat macrophage like-cells RAW 264.7
# [11] = system: human macrophages, fibroblasts and keratinocytes
# [12] = system: human fibroblasts; remark: listed apart in the source
# [13] = system: macrophages
# [14] = system: T cells
# [15] = system: IL-1α; details: all stimulation levels
# [16] = system: rat DCs
# [17] = system: human synoviocytes-like fibroblastes; details: (TauCl)=400-500 μM
# [18] = system: IL-8; details: rheumatoid arthritis fibroblast-like synoviocytes
# [19] = system: E. Coli
# [20] = system: AP-1
# [21] = not given; remark: listed apart in the source
# [22] = system: IL-6; details: rheumatoid arthritis fibroblast-like synoviocytes
# [23] = system: mouse dendritic cells; details: incubated 24 hours
# [24] = system: mouse T cells
# [25] = system: macrophages or macrophage-line cells
# [26] = system: rat RAW264.7 cells; details: for Km: read-out: Km of take-up
# [27] = system: TNF-α; details: dose-dependent
smiles,measurement,setting,value
"OCl [HOCl, hypochlorous acid]",concentration that does not alter viability or induce cytotoxicity or cell apoptose,[1],< 50 µM
same,HOCl concentration above which cell death increases significantly,[2],> 0.125 mM
same,HOCl concentration above which cell toxicity increases progressively,[3]; exposition time-dependent,> 25 µM
same,HOCl concentration that is not toxic,[3]; human endothelial cells in vitro,≤ 25 µM
same,"HOCl concentration with cell contractions, rounding and loss of adherence","[3]; rounded within 10 minutes, majority lost adherence after three hours",50 µM
same,IC50,[4],100 µM
same,HOCl molecules taken up within the first 10 minutes,[5],~80%
same,effect on cell growth,[6],temporary stop of cell growth
same,HOCl molecules taken up within 15 minutes,[7],100%
same,HOCl molecules taken up within ½ minute,[7],50%
same,effect on hydrogen peroxide production,[8],inhibits
"OCl [NaOCl, sodium hypochlorite]",cells alive,[9],95%
same,cells that keep their adherence to substrates,[9],40%
same,stability,levels below 5 g/l of available chlorine,under 2 weeks
same,stability of NaOCl oxidative activity,pH value between 10 and 10.5 (EP 0471129 A1),greater than 24 months
same,NaOCl stability,temperature increased to 37° C.,below 24 hours
same,NaOCl concentration at which cell viability is highly altered (irreversible),[10],1 mM
same,NaOCl concentration at which toxicity can be neutralized by an antioxidant addition,[11],< 3.358 mM
same,NaOCl concentration at which toxicity is very low with an antioxidant presence,[11],< 1.679 mM
same,NaOCl concentration with high toxicity,[11],> 6.7165 mM
same,NaOCl concentration at which toxicity cannot be neutralized by antioxidants,[11]; antioxidants at physiological concentrations,13.433 mM
same,NaOCl concentration at which cell morbidity is complete,[12],16.8 mM
same,cells alive,"[12]; 67,165 μmol/l<(NaOCl)<671,655 μmol/l",100%
same,NaOCl concentration of highest efficiency in stimulating growth and cell proliferation,[12]; FCS presence (2%),33.6 µM
same,NaOCl concentration at which viability is not altered and growth and proliferation are stimulated,"[12]; FCS presence (2%), 24 hours of exposure",< 672 µM
same,NaOCl concentration at which cell viability is altered,[12]; observed for 24 hours after a 15-minute exposition,"≥ 1,0075 mM"
"O=C(O)[C@H](CO)NCl [SerCl, Serine N-chloramine]",inhibition of nitric oxide generation,"[13]; (SerCl)=300 μM, after 24 hours",22%
same,inhibition of nitric oxide generation,"[13]; (SerCl)=300 μM, immediately after its preparation",85%
"O=S(=O)(O)CCNCl [TauCl, taurine N-chloramine]",release of IL-2 and IL-6,[14],inhibits
same,concentration that does not alter viability or induce cytotoxicity or cell apoptose,[1],≤ 100 µM
same,effect on IL-1α production,[15],no effect
same,TNF-α and ROS generation,[16]; (TauCl)=250 μM,not inhibited
same,"production of IL-10, IL-12, PGE2 and nitric oxide",[16]; (TauCl)=250 μM,inhibits
same,"release of ROS, nitric oxide, PGE2, TNF-α, IL-6, IL-10 and IL-12","[16]; (TauCl)=500 μM, two hours pre-incubated",almost completely inhibits
same,viability preserved,[17],≥ 95%
same,IC50,[18],~450 µM
same,bactericidal activity,[19],very low bactericidal activity
same,IC50,[4],550 µM
same,AP-1 DNA-bonding,[20]; (TauCl)=250 μM,without altering
same,DNA-bonding activity of AP-1,[20]; TauCl 500 μM,decreases
same,inhibition of nitric oxide generation,[13]; 100 µM,8-22%
same,inhibition of nitric oxide generation,[13]; 600 µM,98%
same,oxidative activity decrease,"[21]; physiological pH (7.4), 37° C.",below 5 %/hour
same,IC50,[22],~225 µM
same,TauCl concentration above which cell viability decreases significantly,[23],> 0.5 mM
same,TauCl concentration at which cell viability (mitochondrial activity) is not altered,[24],30 to 300 µM
same,TauCl concentration that is cytotoxic,[24],300 µM
same,TauCl concentration that alters cell viability,[25],> 1 mM
same,Vmax of take-up,[26]; LPS-stimulated macrophages,82.6 pmol/min/10^6 cells
same,Km,[26]; LPS-stimulated macrophages,45.9 µM
same,Vmax of take-up,[26]; relaxed rat RAW264.7 cells,51.3 pmol/min/10^6 cells
same,Km,[26]; relaxed rat RAW264.7 cells,23.3 µM
same,"IC60, TNF-α transcriptional velocity",[27],400 µM
same,effect on hydrogen peroxide production,[8],no effect
O=S(=O)([O-])CCNCl.[Na+] [taurine N-chloramine sodium salt],stability decrease in 15 days,"[21]; aqueous solution, pH=8.3",around 30%
same,stability decrease in 65 days,"[21]; aqueous solution, pH=8.3",around 61%
same,stability decrease per day after the first 15 days,"[21]; aqueous solution, pH=8.3",around 0.71 % per day
NCCS(=O)(=O)O [taurine],effect on nitric oxide generation,[13]; taurine alone,without effect
same,Vmax of take-up,[26]; LPS-stimulated macrophages,116.3 pmol/min/10^6 cells
same,Km,[26]; LPS-stimulated macrophages,17.3 µM
same,Vmax of take-up,[26]; relaxed rat RAW264.7 cells,90.9 pmol/min/10^6 cells
same,Km,[26]; relaxed rat RAW264.7 cells,28.1 µM
